Some test systems named below: SNB-19 CNS; ACHN renal; SF-295 CNS; SF-268 CNS; HOP-62 NSCLC; SW-620 colon; SK-MEL-5 melanoma; HOP-92 NSCLC; RXF 393 renal; HCT-15 colon; UACC-257 melanoma; EKVX NSCLC; NCI-H226 lung; 786-0 renal; OVCAR-3 ovarian; SR leukemia; UACC-62 melanoma; RPMI-8226 leukemia; MDA-MB-231 breast.
Holding throughout (experiment): inhibition of tumour cell growth, NCI panel, 48 h

The text below walks through data of PubChem BioAssay (NCI).

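Method: 48-hour compound exposure of cells in 96-well plates, five concentrations, linear interpolation of endpoints. Definition used: TGI = concentration required for complete inhibition of growth.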

Turning to `COC(=O)C(Cc1nc2ccccc2[nH]c1=O)C(=O)C(=O)Nc1ccc(F)cc1` (configuration not stated), the TGI is greater than 100 µM in the experiment with SNB-19 CNS; greater than 100 µM in the experiment with ACHN renal; greater than 100 µM with SF-295 CNS; 56.4 µM in the experiment with SF-268 CNS; greater than 100 µM in the experiment on HOP-62 NSCLC; 42.8 µM with SW-620 colon. In addition, the TGI in the experiment on SK-MEL-5 melanoma was greater than 100 µM; in the experiment with HOP-92 NSCLC, 56.4 µM; in the experiment with RXF 393 renal, 47.1 µM; in the experiment on HCT-15 colon, greater than 100 µM; in the experiment with UACC-257 melanoma, greater than 100 µM; with EKVX NSCLC it was greater than 100 µM. The TGI was greater than 100 µM in the experiment on NCI-H226 lung; 58.8 µM with 786-0 renal; greater than 100 µM with OVCAR-3 ovarian; greater than 100 µM in the experiment with SR leukemia; 67.8 µM in the experiment on UACC-62 melanoma.

With `O=C1N(CN2CCOCC2)CN(CN2CCOCC2)C(=O)N1Cc1ccc(CN2C(=O)N(CN3CCOCC3)CN(CN3CCOCC3)C2=O)cc1`, the TGI in the experiment on SNB-19 CNS, with ACHN renal, in the experiment with SF-295 CNS, in the experiment on SF-268 CNS, with HOP-62 NSCLC and in the experiment with SW-620 colon was greater than 100 µM throughout. In addition, the TGI was 89.5 µM in the experiment with RPMI-8226 leukemia; greater than 100 µM with SK-MEL-5 melanoma; greater than 100 µM with HOP-92 NSCLC; greater than 100 µM with MDA-MB-231 breast; greater than 100 µM in the experiment with HCT-15 colon; greater than 100 µM in the experiment with UACC-257 melanoma. Further, the TGI in the experiment with EKVX NSCLC is greater than 100 µM; in the experiment with NCI-H226 lung, greater than 100 µM; in the experiment on 786-0 renal, greater than 100 µM; in the experiment on OVCAR-3 ovarian, greater than 100 µM; with SR leukemia, greater than 100 µM; with UACC-62 melanoma, 85.4 µM.

With `O=c1c2cc(S(=O)(=O)Nc3ccc(Cl)cc3Cl)ccc2ncn1NS(=O)(=O)c1cccc2ccccc12`, the TGI in the experiment on SNB-19 CNS, in the experiment on ACHN renal, in the experiment on SF-295 CNS, in the experiment with SF-268 CNS, in the experiment with HOP-62 NSCLC and in the experiment with SW-620 colon was greater than 100 µM throughout. The TGI is greater than 100 µM with RPMI-8226 leukemia; 81.4 µM in the experiment with HOP-92 NSCLC; greater than 100 µM in the experiment with MDA-MB-231 breast; greater than 100 µM in the experiment with HCT-15 colon; greater than 100 µM with UACC-257 melanoma; greater than 100 µM in the experiment on EKVX NSCLC. In addition, the TGI is greater than 100 µM in the experiment with NCI-H226 lung; greater than 100 µM with 786-0 renal; greater than 100 µM in the experiment on OVCAR-3 ovarian; 70.6 µM with SR leukemia; greater than 100 µM with UACC-62 melanoma.

For `Cc1cc2c(cc1C)C(=O)/C(=C/c1ccccc1C(=O)O)C2`, the TGI in the experiment on SNB-19 CNS, with ACHN renal, in the experiment on SF-295 CNS, with SF-268 CNS, in the experiment with HOP-62 NSCLC and with SW-620 colon was greater than 100 µM throughout. For the same compound, the TGI was 75.2 µM in the experiment on RPMI-8226 leukemia; greater than 100 µM with SK-MEL-5 melanoma; greater than 100 µM in the experiment on HOP-92 NSCLC; greater than 100 µM in the experiment with RXF 393 renal; greater than 100 µM with HCT-15 colon; greater than 100 µM in the experiment on UACC-257 melanoma. In addition, the TGI with EKVX NSCLC was greater than 100 µM; in the experiment with NCI-H226 lung, 57.8 µM; in the experiment on 786-0 renal, greater than 100 µM; with OVCAR-3 ovarian, greater than 100 µM; in the experiment on SR leukemia it was 62.7 µM; in the experiment on UACC-62 melanoma it was greater than 100 µM.

For the compound `OCCCCCCCCCCCOc1ccc(C2OCC3(CC=CCC3)CO2)cc1` (configuration not stated), the TGI with SNB-19 CNS came out at 43.5 µM; in the experiment on ACHN renal, 33.3 µM; with SF-295 CNS, 34.7 µM; in the experiment with SF-268 CNS, 40.9 µM; in the experiment with HOP-62 NSCLC it was 35.9 µM; with SW-620 colon, 39.1 µM. Further, the TGI was greater than 100 µM in the experiment on RPMI-8226 leukemia; 80.2 µM in the experiment on SK-MEL-5 melanoma; 32.8 µM with HOP-92 NSCLC; 31.4 µM in the experiment with MDA-MB-231 breast; 32.3 µM in the experiment on HCT-15 colon; 38.2 µM with UACC-257 melanoma. Also, the TGI came to 23.8 µM in the experiment on EKVX NSCLC; 52.9 µM in the experiment with NCI-H226 lung; 30.5 µM in the experiment with 786-0 renal; 57.3 µM in the experiment on OVCAR-3 ovarian; 17.1 µM in the experiment on SR leukemia; 32.8 µM in the experiment on UACC-62 melanoma.

For `C=C(C)CC(C)(c1cc2ccccc2n1C)N1CCOCC1` (configuration not stated), the TGI in the experiment on SNB-19 CNS, with ACHN renal, with SF-295 CNS, with SF-268 CNS, in the experiment with HOP-62 NSCLC and in the experiment with SW-620 colon was greater than 100 µM in each case. The TGI in the experiment on SK-MEL-5 melanoma, in the experiment on HOP-92 NSCLC, with RXF 393 renal, with HCT-15 colon, with UACC-257 melanoma and in the experiment on EKVX NSCLC was greater than 100 µM each time. Besides, the TGI with NCI-H226 lung, with 786-0 renal, with OVCAR-3 ovarian, with SR leukemia and with UACC-62 melanoma was greater than 100 µM each time.

As for `Cc1cccc(/C=N/NC(=S)N(C)CCc2ccccn2)n1`, the TGI in the experiment on SNB-19 CNS is greater than 100 µM; in the experiment with ACHN renal, 1.15 µM; in the experiment on SF-295 CNS, greater than 100 µM; in the experiment with SF-268 CNS, greater than 100 µM; with SW-620 colon, greater than 100 µM; in the experiment on RPMI-8226 leukemia, 0.388 µM. In addition, the TGI with SK-MEL-5 melanoma is 9.4 µM; in the experiment on HOP-92 NSCLC, greater than 83.9 µM; with MDA-MB-231 breast it was greater than 100 µM; in the experiment with HCT-15 colon it was greater than 100 µM; in the experiment on UACC-257 melanoma, 45.6 µM; with EKVX NSCLC it was greater than 100 µM. In addition, the TGI was 19.6 µM in the experiment on NCI-H226 lung; greater than 100 µM in the experiment with 786-0 renal; greater than 100 µM in the experiment on OVCAR-3 ovarian; greater than 100 µM in the experiment on SR leukemia; 1.02 µM in the experiment with UACC-62 melanoma.
